# Measured values as given in paper PMC3914206.
# Assays:
# Format in all cases: binding
# panel of 442 kinases [1] = biological target: T1, panel of 442 kinases (Homo sapiens, UniProt Q6DT37); details: Compound Concentration 10 µM
# T1 construct: purchased KINOMEscan
# Text: (§1) We assessed the selectivity of members of this scaffold using the KINOMEscan methodology across a near comprehensive panel of 442 kinases [[18,27]].
# panel of 442 kinases [2] = biological target: T2, panel of 442 kinases (Homo sapiens, UniProt Q9Y5S2); details: Compound Concentration 10 µM
# T2 construct: purchased KINOMEscan
# Text: as §1
# panel of 442 kinases [3] = biological target: T3, panel of 442 kinases (Homo sapiens, UniProt Q9NRH2); details: kinase SNRK; compound concentration 10 µM
# T3 construct: purchased KINOMEscan
# T3 sequence (Q9NRH2 1-765): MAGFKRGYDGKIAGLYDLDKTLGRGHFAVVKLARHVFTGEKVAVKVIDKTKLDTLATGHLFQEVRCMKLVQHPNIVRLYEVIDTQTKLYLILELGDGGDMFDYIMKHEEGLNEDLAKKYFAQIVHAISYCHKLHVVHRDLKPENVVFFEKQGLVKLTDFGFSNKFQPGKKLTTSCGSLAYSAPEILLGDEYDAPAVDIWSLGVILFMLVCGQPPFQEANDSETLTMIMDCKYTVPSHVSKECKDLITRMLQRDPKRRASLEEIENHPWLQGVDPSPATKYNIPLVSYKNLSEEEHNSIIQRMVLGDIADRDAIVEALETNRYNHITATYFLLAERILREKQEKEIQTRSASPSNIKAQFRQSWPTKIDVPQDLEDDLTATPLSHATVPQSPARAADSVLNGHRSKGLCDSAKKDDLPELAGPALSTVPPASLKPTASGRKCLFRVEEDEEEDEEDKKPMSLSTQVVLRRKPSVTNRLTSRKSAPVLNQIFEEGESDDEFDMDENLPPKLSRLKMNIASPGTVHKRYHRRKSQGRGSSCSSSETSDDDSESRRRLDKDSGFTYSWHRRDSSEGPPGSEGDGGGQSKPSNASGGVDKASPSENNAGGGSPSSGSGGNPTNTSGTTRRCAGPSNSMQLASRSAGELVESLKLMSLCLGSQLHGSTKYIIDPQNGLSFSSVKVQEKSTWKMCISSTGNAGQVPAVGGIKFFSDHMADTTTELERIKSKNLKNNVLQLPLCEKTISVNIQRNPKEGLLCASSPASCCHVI
# Text: as §1
# T2 sequence (Q9Y5S2 whole entry): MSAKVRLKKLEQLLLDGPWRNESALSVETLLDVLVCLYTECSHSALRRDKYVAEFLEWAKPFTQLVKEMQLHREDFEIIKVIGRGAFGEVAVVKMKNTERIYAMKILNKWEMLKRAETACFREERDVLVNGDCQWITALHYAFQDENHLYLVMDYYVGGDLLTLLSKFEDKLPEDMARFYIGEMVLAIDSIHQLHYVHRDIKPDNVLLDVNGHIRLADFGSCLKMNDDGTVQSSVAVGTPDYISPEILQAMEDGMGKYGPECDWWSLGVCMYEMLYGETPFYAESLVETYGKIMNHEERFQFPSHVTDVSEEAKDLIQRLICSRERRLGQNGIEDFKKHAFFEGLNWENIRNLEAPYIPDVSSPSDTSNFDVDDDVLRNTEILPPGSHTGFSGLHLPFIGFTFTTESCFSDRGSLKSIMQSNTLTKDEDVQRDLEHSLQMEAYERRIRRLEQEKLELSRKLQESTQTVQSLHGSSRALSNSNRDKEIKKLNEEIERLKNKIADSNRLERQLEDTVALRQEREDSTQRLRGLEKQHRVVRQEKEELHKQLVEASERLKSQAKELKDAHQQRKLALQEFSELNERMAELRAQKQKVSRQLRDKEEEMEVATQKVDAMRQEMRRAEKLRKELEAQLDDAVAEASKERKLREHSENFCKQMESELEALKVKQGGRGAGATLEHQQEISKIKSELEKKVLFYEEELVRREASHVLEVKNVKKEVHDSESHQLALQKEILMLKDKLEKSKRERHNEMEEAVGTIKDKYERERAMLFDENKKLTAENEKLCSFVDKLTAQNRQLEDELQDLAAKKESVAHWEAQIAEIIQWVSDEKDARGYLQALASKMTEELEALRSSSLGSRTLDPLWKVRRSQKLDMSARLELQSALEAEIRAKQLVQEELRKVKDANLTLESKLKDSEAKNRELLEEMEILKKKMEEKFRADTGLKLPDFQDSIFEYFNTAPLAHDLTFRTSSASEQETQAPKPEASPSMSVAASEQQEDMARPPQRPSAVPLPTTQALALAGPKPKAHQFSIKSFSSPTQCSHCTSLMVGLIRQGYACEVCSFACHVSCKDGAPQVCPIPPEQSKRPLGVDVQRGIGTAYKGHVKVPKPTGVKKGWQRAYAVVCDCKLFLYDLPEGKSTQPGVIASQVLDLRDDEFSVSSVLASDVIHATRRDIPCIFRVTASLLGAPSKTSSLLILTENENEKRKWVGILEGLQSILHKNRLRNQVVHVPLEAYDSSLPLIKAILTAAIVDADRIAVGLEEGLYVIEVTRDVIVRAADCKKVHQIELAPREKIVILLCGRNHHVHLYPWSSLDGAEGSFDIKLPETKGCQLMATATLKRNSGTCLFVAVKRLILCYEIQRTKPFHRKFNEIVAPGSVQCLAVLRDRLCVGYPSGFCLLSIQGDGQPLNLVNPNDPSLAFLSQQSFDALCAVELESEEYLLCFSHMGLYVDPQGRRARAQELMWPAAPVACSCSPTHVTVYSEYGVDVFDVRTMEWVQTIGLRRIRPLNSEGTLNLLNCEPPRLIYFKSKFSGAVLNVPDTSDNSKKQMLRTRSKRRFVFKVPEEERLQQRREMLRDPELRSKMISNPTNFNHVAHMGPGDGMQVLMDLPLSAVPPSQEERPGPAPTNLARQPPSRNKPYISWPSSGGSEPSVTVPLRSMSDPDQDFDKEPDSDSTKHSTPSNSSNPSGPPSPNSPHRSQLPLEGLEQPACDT
# T1 sequence (Q6DT37 whole entry): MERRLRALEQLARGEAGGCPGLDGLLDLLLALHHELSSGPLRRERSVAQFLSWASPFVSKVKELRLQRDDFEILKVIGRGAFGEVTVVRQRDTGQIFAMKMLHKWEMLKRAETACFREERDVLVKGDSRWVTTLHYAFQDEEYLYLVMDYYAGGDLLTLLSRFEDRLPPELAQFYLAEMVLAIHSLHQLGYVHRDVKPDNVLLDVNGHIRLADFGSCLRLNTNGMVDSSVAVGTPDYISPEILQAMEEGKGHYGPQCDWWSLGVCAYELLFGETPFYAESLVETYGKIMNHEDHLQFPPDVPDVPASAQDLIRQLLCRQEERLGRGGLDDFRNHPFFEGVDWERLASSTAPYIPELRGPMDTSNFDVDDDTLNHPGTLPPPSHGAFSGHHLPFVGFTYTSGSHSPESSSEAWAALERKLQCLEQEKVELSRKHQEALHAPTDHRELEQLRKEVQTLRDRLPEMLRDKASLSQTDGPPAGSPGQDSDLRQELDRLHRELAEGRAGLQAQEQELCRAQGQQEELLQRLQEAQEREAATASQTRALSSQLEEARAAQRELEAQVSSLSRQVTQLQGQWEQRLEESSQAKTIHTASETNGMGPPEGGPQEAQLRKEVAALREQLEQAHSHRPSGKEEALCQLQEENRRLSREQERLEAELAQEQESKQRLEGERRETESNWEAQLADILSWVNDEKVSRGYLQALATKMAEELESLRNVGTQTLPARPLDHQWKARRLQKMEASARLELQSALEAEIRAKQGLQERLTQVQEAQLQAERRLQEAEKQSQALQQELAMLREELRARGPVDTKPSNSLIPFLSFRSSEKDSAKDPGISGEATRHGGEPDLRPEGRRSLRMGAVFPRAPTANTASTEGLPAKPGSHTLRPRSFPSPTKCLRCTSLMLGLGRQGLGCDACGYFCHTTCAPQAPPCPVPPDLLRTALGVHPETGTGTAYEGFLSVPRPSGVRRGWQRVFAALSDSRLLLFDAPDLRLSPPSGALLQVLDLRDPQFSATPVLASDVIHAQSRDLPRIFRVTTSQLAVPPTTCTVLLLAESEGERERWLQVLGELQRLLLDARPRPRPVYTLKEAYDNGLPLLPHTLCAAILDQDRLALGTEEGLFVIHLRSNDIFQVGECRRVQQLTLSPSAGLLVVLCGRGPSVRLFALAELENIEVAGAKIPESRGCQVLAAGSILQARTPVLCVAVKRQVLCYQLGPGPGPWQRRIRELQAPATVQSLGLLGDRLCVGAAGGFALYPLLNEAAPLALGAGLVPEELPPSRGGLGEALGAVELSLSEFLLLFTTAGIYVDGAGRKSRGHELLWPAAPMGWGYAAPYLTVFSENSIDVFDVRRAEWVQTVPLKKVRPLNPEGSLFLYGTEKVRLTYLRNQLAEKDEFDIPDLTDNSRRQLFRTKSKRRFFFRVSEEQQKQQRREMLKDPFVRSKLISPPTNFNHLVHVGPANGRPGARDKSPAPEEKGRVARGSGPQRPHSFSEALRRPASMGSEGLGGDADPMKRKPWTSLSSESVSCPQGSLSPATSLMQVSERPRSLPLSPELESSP
SMILES,KINOMEscan: DMPK2 (panel of 442 kinases [1]),KINOMEscan: MRCKB (panel of 442 kinases [2]),"% Ctrl, SNRK (panel of 442 kinases [3])"
"COc1cc(C(=O)N2CCC(N3CCN(C)CC3)CC2)ccc1Nc1ncc2c(n1)N(C1CCCC1)c1ccccc1C(=O)N2C [Compound 25, 11-cyclopentyl-2-((2-methoxy-4-(4-(4-methylpiperazin-1-yl)piperidine-1-carbonyl)phenyl)amino)-5-methyl-5H-benzo[e]pyrimido[5,4-b][1,4]diazepin-6(11H)-one]",94,100,72 % Ctrl
CCOc1cc(C(=O)N2CCC(N3CCN(C)CC3)CC2)ccc1Nc1ncc2c(n1)N(C1CCCC1)c1ccccc1C(=O)N2C [Compound 26],100,100,52 % Ctrl
COc1cc(C(=O)N2CCC(N3CCN(C)CC3)CC2)ccc1Nc1ncc2c(n1)N(C)c1ccccc1C(=O)N2C [15 (LRRK2-IN-1)],100,100,94 % Ctrl
